“Also recorded” adds a separate entry of the source.
Tests used:
AHR = target: T1, AHR (Mus musculus, UniProt P30561); test: AHR-responsive (dioxin responsive element) GFP reporter assay in H1G1 mouse hepatoma cells; assay type: cell-based; settings: for AHR agonist activity (activation of AHR-responsive reporter): agonist mode; for AHR antagonist activity (block of AHR activation by TCDD): antagonist mode, co-treatment with TCDD, H1G1 cells
T1 construct: murine hepatoma cell line stably transfected with an AhR-responsive (AhR-eGFP) reporter construct; endogenous in cells
T1 sequence (P30561 10-848): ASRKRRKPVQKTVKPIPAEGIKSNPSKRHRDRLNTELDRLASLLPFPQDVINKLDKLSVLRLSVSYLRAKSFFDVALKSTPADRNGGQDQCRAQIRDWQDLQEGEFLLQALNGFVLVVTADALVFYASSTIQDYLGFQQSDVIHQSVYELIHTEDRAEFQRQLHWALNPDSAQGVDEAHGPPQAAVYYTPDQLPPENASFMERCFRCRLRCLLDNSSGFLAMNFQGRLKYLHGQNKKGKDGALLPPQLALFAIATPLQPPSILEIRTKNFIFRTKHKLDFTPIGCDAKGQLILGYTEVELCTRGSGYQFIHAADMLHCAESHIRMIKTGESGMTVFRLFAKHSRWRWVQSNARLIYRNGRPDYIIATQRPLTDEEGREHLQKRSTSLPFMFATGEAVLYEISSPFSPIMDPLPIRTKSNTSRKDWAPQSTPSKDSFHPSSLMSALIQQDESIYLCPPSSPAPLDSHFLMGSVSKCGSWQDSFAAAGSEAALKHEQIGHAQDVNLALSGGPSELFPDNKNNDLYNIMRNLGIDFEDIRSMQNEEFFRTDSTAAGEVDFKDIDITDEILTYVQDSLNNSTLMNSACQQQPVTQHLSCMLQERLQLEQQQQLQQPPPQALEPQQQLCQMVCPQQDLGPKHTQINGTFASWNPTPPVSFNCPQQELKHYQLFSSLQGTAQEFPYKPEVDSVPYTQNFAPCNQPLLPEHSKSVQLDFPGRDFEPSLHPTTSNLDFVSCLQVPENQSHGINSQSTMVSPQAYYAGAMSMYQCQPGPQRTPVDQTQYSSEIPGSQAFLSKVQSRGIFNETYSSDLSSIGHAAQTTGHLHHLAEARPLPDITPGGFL
Source text: (§1) We performed a precursory screen of all tryptophan metabolites including both 3-HKA and 3-HAA to bind to and act as agonists or antagonists of the AHR using two separate assays. First we examined the ability of 3-HKyn, 3-HAA, and PA to displace TCDD binding to the human AHR protein in vitro (20). […] We also measured AHR activation using a mouse hepatoma cell line (H1G1) that stably expresses a green fluorescent protein (GFP) reporter construct downstream of a series of dioxin responsive elements (FIG. 7A) (21).

[1] = test system: experimental allergic encephalomyelitis (EAE); settings: literature reports (refs 15, 25 as cited in text); cited from earlier work
[2] = test system: stimulated human CD4+ T cells; test: IL-22 expression by CD4+ T cells in stimulated human PBMCs / T cells; assay type: cell-based; settings: for IL-22 expression by CD4+ T cells (Th22 differentiation): stimulated human PBMCs / T cells, 100 μM for 3-HKyn and 3-HAA in FIG. 6A
Source text: FIG. 6: 3-HKyn and 3-HAA promote IL-22 expression by stimulated human CD4+ T cells. […] (C) IL-22 induction by 3-HAA is blocked by inhibition of the AhR pathway.
This is highlighted by the observation that AHR−/− mice retain the ability to generate some Th17 cells, but are incapable of generating cells that express IL-22 (16-18). […] To screen for the ability of tryptophan metabolites generated downstream of IDO to activate the AHR, we stimulated human T cells in vitro in the presence of different tryptophan metabolites (3-Hydroxykynurenine (3-HKA), 3-Hydroxyanthranilic Acid (3-HAA), Picolinic Acid (PA), and Quinolinic Acid (QA)) to assess whether any promoted the expansion of CD4+ T cells secreting IL-22. […] To determine whether the induction of IL-22 within this population was dependent upon AHR activation, we next stimulated human T cells in the presence or absence of a potent AHR antagonist (CH-223191) and monitored the induction of IL-22.

[3] = test system: naïve (CD45RA+CCR7+CD95−CD25−) CD4+ T cells; test: Foxp3 induction in stimulated naïve CD4+ T cells; assay type: cell-based, human
Source text: FIG. 9: The synthetic 3-HAA analogue 3,4 DAA (Tranilast) is an AhR antagonist and promotes the induction of Foxp3 by stimulated CD4+ T cells. (A) 3,4 DAA shares some structural similarities to 3-HAA (highlighted region).
Therefore we asked whether T cells treated with 3,4 DAA might be prompted to differentiate into Treg cells through upregulation of the transcription factor Foxp3 (26).

human naïve CD4+ T cells = test: IL-22 induction in cultured human naïve CD4+ T cells stimulated with anti-CD3/anti-CD28 under Th17 polarizing conditions; assay type: cell-based; settings: CA 25 μM in FIG. 8D
Source text: This is AHR dependent as inclusion of an AHR antagonist fully abrogated effect.
FIG. 8: CA is an endogenous AhR agonist generated by oxidative dimerization of 3-HAA. (A) An alternative pathway of 3-HAA metabolism leads to the generation of CA either by non-enzymatic (oxidation) or enzymatic (laccase, ceruloplasmin) processes. CA is structurally similar to the synthetic AhR ligand TCDD. […] Data are representative of three similar experiments.

human AHR protein = target: T2, human AHR protein (Homo sapiens, UniProt P35869); test: Displacement of TCDD binding to in vitro translated human AHR protein; settings: cell-free
T2 sequence (P35869 11-848): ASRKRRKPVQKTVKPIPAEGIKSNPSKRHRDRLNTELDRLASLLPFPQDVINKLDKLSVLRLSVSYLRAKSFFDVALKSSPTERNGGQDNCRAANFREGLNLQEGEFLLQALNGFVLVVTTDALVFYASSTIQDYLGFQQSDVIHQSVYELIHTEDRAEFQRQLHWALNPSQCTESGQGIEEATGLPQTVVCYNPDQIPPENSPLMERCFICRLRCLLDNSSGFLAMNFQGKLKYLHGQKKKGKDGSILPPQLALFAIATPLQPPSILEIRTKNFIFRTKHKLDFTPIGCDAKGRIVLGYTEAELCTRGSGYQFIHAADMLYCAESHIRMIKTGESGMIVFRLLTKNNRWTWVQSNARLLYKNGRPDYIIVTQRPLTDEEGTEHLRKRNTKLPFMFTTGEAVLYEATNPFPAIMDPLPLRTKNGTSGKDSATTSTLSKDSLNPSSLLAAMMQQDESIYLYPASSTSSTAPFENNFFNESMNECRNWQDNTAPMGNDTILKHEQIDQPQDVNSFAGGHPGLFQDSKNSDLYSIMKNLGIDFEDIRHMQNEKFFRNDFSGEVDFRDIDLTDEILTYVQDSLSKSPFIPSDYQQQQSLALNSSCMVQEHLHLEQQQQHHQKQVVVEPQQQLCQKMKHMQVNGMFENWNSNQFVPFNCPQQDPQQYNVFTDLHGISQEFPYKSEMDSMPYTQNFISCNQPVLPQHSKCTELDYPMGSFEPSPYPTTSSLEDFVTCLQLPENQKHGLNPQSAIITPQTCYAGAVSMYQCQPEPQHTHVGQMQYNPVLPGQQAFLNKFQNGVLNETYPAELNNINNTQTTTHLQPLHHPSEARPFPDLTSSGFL
Source text: as §1

[4] = test system: stimulated human CD4+ T cells; settings: literature (ref 19); cited from earlier work

**Q.** For `NCCc1c[nH]c2ccccc12` [Tryptamine, tryptamine], which “AHR agonist activity (activation of AHR-responsive reporter)” value (“AHR agonist activity” for short) (AHR) is on record?
**A.** The value was “positive control”.

**Q.** With `Clc1cc2c(cc1Cl)Oc1cc(Cl)c(Cl)cc1O2` [TCDD, 2,3,7,8-tetrachlorodibenzodioxin] as the compound, how does the “effect on EAE as previously reported” value [1] read?
**A.** The value was “protective”.

**Q.** With `Nc1c(C(=O)O)ccc(F)c1O` [4-F-3-HAA, 4-fluoro-3-hydroxythranilic acid] as the compound, how does the “effect of HAAO inhibition on the ability of 3-HAA to induce IL-22” value ([2]; in the presence of different concentrations of 3-HAA) read?
**A.** The value was “stark increase in the ability of 3-HAA to induce IL-22”.

**Q.** For `Nc1c(O)cccc1C(=O)O` [3-HAA, 3-Hydroxyanthranilic Acid], which “expansion of Th22 cells” value ([2]; different donors) is on record?
**A.** Its value is at least 2 fold.

**Q.** What about the “IL-22 expression by CD4+ T cells (Th22 differentiation)” value [2] of the same compound?
**A.** The value was “able to promote the differentiation of Th22 cells; also recorded: leads to the expansion of a population of cells expression the cytokine IL-22; also recorded: promotes IL-22 expression in dose-dependent manner”.

**Q.** What about the “AHR agonist activity” value (AHR) of the same compound?
**A.** Its value is “modest increase in AHR activity using 3-HAA as an agonist, this failed to reach significance; also recorded: minimal activation of the AhR; also recorded: no activity in short-term assays”.

**Q.** What about the “Foxp3 expression (frequency of CD4+Foxp3+ T cells)” value ([3]; stimulated naïve CD4+ T cells in vitro) of the same compound?
**A.** Its value is “promotes Foxp3 upregulation but to a lesser extent”.

**Q.** And the IL-22 induction (human naïve CD4+ T cells)?
**A.** The IL-22 induction was “only had minimal effects”.

**Q.** What about the “displacement / inhibition of TCDD binding to human AHR” value (human AHR protein) of the same compound?
**A.** Its value is “modest binding of 3-HAA only at very high concentrations”.

**Q.** Which “reversal of Foxp3 upregulation by 3,4 DAA and 3-HAA” value ([3]; TGFβ signaling inhibitor added) does the source give for `NC(=O)c1ccc(-c2nc(-c3ccc4c(c3)OCO4)c(-c3ccccn3)[nH]2)cc1` [SB-431542] here?
**A.** The value was “reversed the ability of 3,4 DAA and 3-HAA to upregulate Foxp3”.

**Q.** What does the source list for `O=Cc1c2c(cc3c1=Nc1ccccc1-3)=Nc1ccccc1-2` [FICZ, 6-formylindolo[3,2-b]carbazole]?
**A.** effect on EAE as previously reported [1]: increased disease severity; frequency of CD4+ T cells that produce IL-22 (Th22), as previously reported [4]: promoted a significant increase in the frequency of CD4+ T cells that produced IL-22

**Q.** For `Nc1c(O)cccc1C(=O)CC(N)C(=O)O` (stereo not shown) [3-HKyn, 3-Hydroxykynurenine], which “IL-22 expression by CD4+ T cells (Th22 differentiation)” value [2] is on record?
**A.** The value was “leads to the expansion of a population of cells expression the cytokine IL-22”.

**Q.** What about the “IL-22 expression by CD4+ T cells (Th22 differentiation)” value ([2]; listed as 3-HKA) of the same compound?
**A.** The value was “able to promote the differentiation of Th22 cells”.

**Q.** And the “AHR agonist activity” value (AHR)?
**A.** Its value is “none of the other metabolites (3-HKyn, PA, QA) were found to have any activity as agonists or antagonists”.

**Q.** What about the “AHR antagonist activity (block of AHR activation by TCDD)” value (AHR) of the same compound?
**A.** The value was “none of the other metabolites (3-HKyn, PA, QA) were found to have any activity as agonists or antagonists”.

**Q.** And the “displacement / inhibition of TCDD binding to human AHR” value (human AHR protein)?
**A.** Its value is “unable to measure any significant displacement”.

**Q.** Which results are given for `O=C(O)c1ccccn1` [PA, Picolinic Acid]?
**A.** AHR agonist activity (activation of AHR-responsive reporter) (AHR): none of the other metabolites (3-HKyn, PA, QA) were found to have any activity as agonists or antagonists; AHR antagonist activity (block of AHR activation by TCDD) (AHR): none of the other metabolites (3-HKyn, PA, QA) were found to have any activity as agonists or antagonists; displacement / inhibition of TCDD binding to human AHR (human AHR protein): unable to measure any significant displacement

**Q.** What does the source list for `Cc1ccccc1N=Nc1ccc(NC(=O)c2ccnn2C)c(C)c1` [CH-223191]?
**A.** block of IL-22 induction by 3-HAA ([2]; AHR antagonist added with 3-HAA): significantly abolish IL-22 induction by 3-HAA; AHR antagonist activity (block of AHR activation by TCDD) (AHR): potent antagonist; AHR antagonist activity (block of AHR activation by TCDD) (AHR; listed as CH223191): positive control

**Q.** For `O=C(O)c1cccnc1C(=O)O` [QA, Quinolinic Acid], which “AHR agonist activity” value (AHR) is on record?
**A.** The value was “none of the other metabolites (3-HKyn, PA, QA) were found to have any activity as agonists or antagonists”.

**Q.** And the “AHR antagonist activity (block of AHR activation by TCDD)” value (AHR)?
**A.** The value was “none of the other metabolites (3-HKyn, PA, QA) were found to have any activity as agonists or antagonists”.

From patent publication US9486457B2, “Use of cinnabarinic acid as a modulator of immune responses in autoimmune disorders” (The Regents of the University of California, priority 2010, dated 2016)
